Values quoted from earlier work as cited in PMC9102399 (Molecules, 2022).

Tests used:
[1] = set-up: method as in earlier work; conditions: SD rats
[2] = beagle dogs
[3] = rats, oral; curcumin 500 mg/kg

SMILES: COc1cc(C=CC(=O)CC(=O)C=Cc2ccc(O)cc2)ccc1O [CUR II, 4-hydroxycinnamoyl-[4-hydroxy-3-methoxycinnamoyl] methane]
- t1/2 of oral CUR II [1]: about 5.5 h

SMILES: COc1cc(C=CC(=O)CC(=O)C=Cc2ccc(O)c(OC)c2)ccc1O [CUR, 1,7-bis [4-hydroxy-3-methoxy-phenyl]-hepta-1,6-diene-3,5-dione]
- oral t1/2 of CUR [2]: about 0.85 h

SMILES: COc1cc(/C=C/C(=O)CC(=O)/C=C/c2ccc(O)c(OC)c2)ccc1O [curcumin]
- time of maximal plasma concentration [3]: 30 min
